According to patent publication US5332731A, “Cephalosporin derivatives” (Meiji Seika Kaisha, Ltd., priority 1989, dated 1994):
≈ marks a conversion by molar mass, not a printed value.

Tests used:
[1] = system: Enterobacter hirae ATCC8043; experiment: antibacterial activity, MIC by standard serial dilution method; assay type: cell-based
Source text: (§1) Antibacterial activity of Compounds Nos. 1, 3, 5, 7, 9, 11, 13, 15, 17, 19, 21, 23, 25, 27, 29, 31, 33, 35 and 37 indentified hereinbefore which are the particular examples of the new cephalosporin derivative of general formula (I) according to this invention and which are in the form of the free carboxylic acid was estimated by determining the minimum inhibitory concentrations (MIC., μg/ml) of these compounds against a variety of bacteria according to a standard serial dilution method.

[2] = system: Klebsiella pneumoniae PCI602; experiment: as above; assay type: cell-based
Source text: as §1

[3] = system: Enterobacter cloacae G-0008; experiment: as above; assay type: cell-based; conditions: G0008
Source text: as §1

Escherichia coli 255 = experiment: as above; assay type: cell-based
Source text: as §1

[4] = system: Marganella morganii 1510/S-1; experiment: as above; assay type: cell-based
Source text: as §1

[5] = system: Escherichia coli NIHJ JC-2; experiment: as above; assay type: cell-based; conditions: NIHJJC2
Source text: as §1

[6] = system: Escherichia coli W3630 RGN823; experiment: as above; assay type: cell-based; conditions: W3630RGN823
Source text: as §1

[7] = system: Enterobacter cloacae GN7471; experiment: as above; assay type: cell-based
Source text: as §1

[8] = system: Entrobacter faecalis W-73; experiment: as above; assay type: cell-based
Source text: as §1

Proteus vulgaris GN76 = experiment: as above; assay type: cell-based
Source text: as §1

[9] = system: Klebsiella pneumoniae GN69; experiment: as above; assay type: cell-based
Source text: as §1

Escherichia coli 255/S-1 = experiment: as above; assay type: cell-based; conditions: 255/S1
Source text: as §1

[10] = system: Serratia marcescens No. 1; experiment: as above; assay type: cell-based
Source text: as §1

[11] = system: Staphylococcus epidermidis ATCC14990; experiment: as above; assay type: cell-based
Source text: as §1

[12] = system: Proteus vulgaris GN76/C-1; experiment: as above; assay type: cell-based
Source text: as §1

[13] = system: Staphylococcus aureus 209P JC-1; experiment: as above; assay type: cell-based
Source text: as §1

[14] = system: Citrobacter freundii GN346; experiment: as above; assay type: cell-based
Source text: as §1

Escherichia coli GN206 = experiment: as above; assay type: cell-based
Source text: as §1

Marganella morganii 1510 = experiment: as above; assay type: cell-based
Source text: as §1

[15] = system: Citrobacter freundii GN346/16; experiment: as above; assay type: cell-based
Source text: as §1

[16] = system: Serratia marcescens GN10857; experiment: as above; assay type: cell-based
Source text: as §1

[17] = system: Pseudomonas aeruginosa GN10362; experiment: as above; assay type: cell-based
Source text: as §1

[18] = recovery in urine of mice after oral administration (paper-disc assay); assay type: in vivo, mice of ICR-strain; conditions: ICR mice, male, 0.5 mg per mouse oral; 0-4 h; molar %, as free carboxylic acid; averaged
Source text: Thus, some tests were made to evaluate the amount or rate of the cephalosporin compound of this invention which can be recovered as the antibacterially active compound from the urine after it was orally given to mice.
The test compounds estimated in this test for their rate of recovery from urine are Compounds Nos. 2, 4, 6, 8, 10, 12, 14, 16, 18, 20, 22, 24, 26, 28, 30, 32, 34, 36 and 38 identified hereinbefore which are the particular examples of the cephalosporin derivative of general formula (I) of this invention and which are in the form of the pivaloyloxymethyl ester.
To mice of ICR-strain (male, 4-weeks-aged, five mice in each group) was orally administered the test compound identified above at a dosage of 0.5 mg per mouse. By the end of 4 hours after the administration of the test compound, all the amounts of the urine excreted by the treated mice were collected together, and the total quantity of the cephalosporin compound of this invention (as the free carboxylic acid form) in the urine so collected was determined according to a paper-disc assay method using Escherichia coli K-12 8236 strain as the assay strain. […]

Compound	MIC [1] [mg/L]	MIC [2] [mg/L]	MIC [3] [mg/L]	MIC (Escherichia coli 255) [mg/L]	MIC [4] [mg/L]	MIC [5] [mg/L]	MIC [6] [mg/L]	MIC [7] [mg/L]	MIC [8] [mg/L]	MIC (Proteus vulgaris GN76) [mg/L]	MIC [9] [mg/L]	MIC (Escherichia coli 255/S-1) [mg/L]	MIC [10] [mg/L]	MIC [11] [mg/L]	MIC [12] [mg/L]	MIC [13] [mg/L]	MIC [14] [mg/L]	MIC (Escherichia coli GN206) [mg/L]	MIC (Marganella morganii 1510) [mg/L]	MIC [15] [mg/L]	further results
CO/N=C(\C(=O)NC1C(=O)N2C(C(=O)O)=C(SCC3CCOCC3)CS[C@H]12)c1csc(N)n1 (some centres unmarked) [Compound No. 31, 7-[(Z)-2-(2-aminothiazol-4-yl)-2-methoxyiminoacetamido]-3-(tetrahydropyran-4-yl)methylthio-3-cephem-4-carboxylic acid]	> 100	1.56 (≈ 3.04 µM)	1.56 (≈ 3.04 µM)	25 (≈ 48.7 µM)	0.78 (≈ 1.52 µM)	1.56 (≈ 3.04 µM)	1.56 (≈ 3.04 µM)	50 (≈ 97.3 µM)	> 100	0.78 (≈ 1.52 µM)	0.78 (≈ 1.52 µM)	1.56 (≈ 3.04 µM)	3.13 (≈ 6.09 µM)	1.56 (≈ 3.04 µM)	12.5 (≈ 24.3 µM)	1.56 (≈ 3.04 µM)	> 100	6.25 (≈ 12.2 µM)	100 (≈ 195 µM)	3.13 (≈ 6.09 µM)	MIC [16]: 25 mg/L (≈ 48.7 µM); MIC [17]: 100 mg/L (≈ 195 µM)
CO/N=C(\C(=O)NC1C(=O)N2C(C(=O)O)=C(SCC3COCOC3)CS[C@H]12)c1csc(N)n1 (some centres unmarked) [Compound No. 33, 7-[(Z)-2-(2-aminothiazol-4-yl)-2-methoxyiminoacetamido]-3-(1,3-dioxan-5-yl)methylthio-3-cephem-4-carboxylic acid]	> 100	0.39 (≈ 0.756 µM)	0.78 (≈ 1.51 µM)	50 (≈ 97 µM)	0.39 (≈ 0.756 µM)	0.78 (≈ 1.51 µM)	0.78 (≈ 1.51 µM)	50 (≈ 97 µM)	> 100	0.2 (≈ 0.388 µM)	0.1 (≈ 0.194 µM)	0.78 (≈ 1.51 µM)	0.78 (≈ 1.51 µM)	0.78 (≈ 1.51 µM)	6.25 (≈ 12.1 µM)	0.78 (≈ 1.51 µM)	> 100	6.25 (≈ 12.1 µM)	100 (≈ 194 µM)	3.13 (≈ 6.07 µM)	MIC [16]: 50 mg/L (≈ 97 µM); MIC [17]: > 100 mg/L
Nc1nc(/C(=N/O)C(=O)NC2C(=O)N3C(C(=O)O)=C(SCC4COCO4)CSC23)cs1 (centres unmarked) [Compound No. 35]	12.5 (≈ 25.6 µM)	0.39 (≈ 0.8 µM)	1.56 (≈ 3.2 µM)	50 (≈ 103 µM)	0.2 (≈ 0.41 µM)	0.39 (≈ 0.8 µM)	1.56 (≈ 3.2 µM)	50 (≈ 103 µM)	12.5 (≈ 25.6 µM)	12.5 (≈ 25.6 µM)	0.05 (≈ 0.103 µM)	0.39 (≈ 0.8 µM)	12.5 (≈ 25.6 µM)	0.2 (≈ 0.41 µM)	100 (≈ 205 µM)	0.39 (≈ 0.8 µM)	> 100	12.5 (≈ 25.6 µM)	50 (≈ 103 µM)	3.13 (≈ 6.42 µM)	MIC [16]: > 100 mg/L; MIC [17]: > 100 mg/L
Nc1nc(/C(=N/O)C(=O)NC2C(=O)N3C(C(=O)O)=C(SCC4CCOCC4)CS[C@H]23)cs1 (some centres unmarked) [Compound No. 37, 7-[(Z)-2-(2-aminothiazol-4-yl)-2-hydroxyiminoacetamido]-3-(tetrahydropyran-4-yl)methylthio-3-cephem-4-carboxylic acid]	50 (≈ 100 µM)	3.13 (≈ 6.27 µM)	3.13 (≈ 6.27 µM)	50 (≈ 100 µM)	0.78 (≈ 1.56 µM)	3.13 (≈ 6.27 µM)	6.25 (≈ 12.5 µM)	100 (≈ 200 µM)	25 (≈ 50 µM)	3.13 (≈ 6.27 µM)	0.1 (≈ 0.2 µM)	3.13 (≈ 6.27 µM)	12.5 (≈ 25 µM)	0.39 (≈ 0.781 µM)	50 (≈ 100 µM)	0.39 (≈ 0.781 µM)	> 100	12.5 (≈ 25 µM)	100 (≈ 200 µM)	6.25 (≈ 12.5 µM)	MIC [16]: > 100 mg/L; MIC [17]: > 100 mg/L
CC(C)(C)C(=O)OCOC(=O)C1=C(SCC2CCOCC2)CS[C@@H]2C(NC(=O)/C(=N\O)c3csc(N)n3)C(=O)N12 (some centres unmarked) [Compound No. 38, pivaloyloxymethyl 7-[(Z)-2-(2-aminothiazol-4-yl)-2-hydroxyiminoacetamido]-3-(tetrahydropyran-4-yl) methylthio-3-cephem-4-carboxylate]																					Rate of recovery of test compound remaining in urine collected during 0 to 4 hours after oral administration [18]: Less than detectable amount
